# Laboratory results: US20060247250A1 (TargeGen, Inc., priority 2005, published 2006)
# pIC50: −log10 of the molar value.
# Molecular target: T1, human c-Src (Homo sapiens, UniProt P12931)
# T1 construct: purchased Panvera/Invitrogen
# Assay: Src kinase inhibition, luciferase-based residual ATP (KinaseGlo)
# Type: biochemical
# Details: recombinant human c-Src, ATP 3 μM, PTK2 substrate, 90 minutes at room temperature
# Protocol: The ability of compounds of the present invention to inhibit the activity of three groups of kinases was tested. Kinases tested included the src family (primarily src and yes), the angiogenic growth factors receptors (FGFR1, PDGFRb and VEGFR2) and the ephrin, EphB4. All kinase reactions were conducted in 96-well plates with a final reaction volume of 50 ul.
# Recombinant human c-Src or Yes (28 ng/well, Panvera/Invitrogen, Madison Wis.), ATP (3 μM), a tyrosine kinase substrate (PTK2, 250 μM, Promega Corp., Madison Wis.), and test agents (at concentrations ranging from about 1 nM/l to about 100 μM/1), in the presence of Src kinase reaction buffer (Upstate USA, Lake Placid N.Y.). After reacting for about 90 minutes at room temperature, residual ATP was determined using a luciferase-based assay (KinaseGlo, Promega Corp.) as a measure of kinase activity. Data from four wells were then averaged and used to determine IC50 values for the test compounds (Prism software package, GraphPad Software, San Diego Calif.).
# T1 sequence (P12931 whole entry): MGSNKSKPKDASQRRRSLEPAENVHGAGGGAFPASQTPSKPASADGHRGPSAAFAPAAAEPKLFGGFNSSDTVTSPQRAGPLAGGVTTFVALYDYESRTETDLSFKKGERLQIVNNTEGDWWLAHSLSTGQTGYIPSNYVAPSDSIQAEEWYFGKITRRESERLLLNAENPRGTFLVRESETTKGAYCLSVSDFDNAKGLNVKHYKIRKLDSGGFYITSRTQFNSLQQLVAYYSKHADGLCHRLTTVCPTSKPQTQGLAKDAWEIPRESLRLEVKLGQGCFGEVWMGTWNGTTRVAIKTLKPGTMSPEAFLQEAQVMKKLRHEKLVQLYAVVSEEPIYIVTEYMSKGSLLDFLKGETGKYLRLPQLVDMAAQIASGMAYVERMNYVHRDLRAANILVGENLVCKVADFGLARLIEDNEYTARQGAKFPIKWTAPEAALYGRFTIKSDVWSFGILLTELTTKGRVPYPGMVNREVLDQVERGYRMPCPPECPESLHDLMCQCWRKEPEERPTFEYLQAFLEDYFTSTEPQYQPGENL
row,SMILES,pIC50
1,O=C(NCCN1CCCC1)c1ccc(Nc2ncc(NC(=O)c3ccc(O)cc3Cl)cn2)cc1,7.07
2,"COc1ccc(Cl)c(C(=O)Nc2cnc(Nc3ccc(S(=O)(=O)CCCN4CCCC4)cc3)nc2)c1 [Compound 53, 2-Chloro-5-methoxy-N-{2-[4-(3-pyrrolidin-1-yl-propane-1-sulfonyl)-phenylamino]-pyrimidin-5-yl}-benzamide]",5.10
3,"Cc1cccc(C)c1C(=O)Nc1cnc(Nc2cccc(S(=O)(=O)NCCN(C)C)c2)nc1 [I, N-{2-[3-(2-Dimethylamino-ethylsulfamoyl)-phenylamino]-Pyrimidin-5-yl}-2,6-dimethyl-benzamide]",6.54
4,"O=C(Nc1cnc(Nc2ccc(C(=O)N3CCN(CCO)CC3)nc2)nc1)c1c(Cl)cccc1Cl [II, 2,6-Dichloro-N-(2-{6-[4-(2-hydroxy-ethyl)-piperazine-1-carbonyl]-pyridin-3-ylamino}-pyrimidin-5-yl)-benzamide]",6.40
5,"O=C(Nc1cnc(Nc2ccc(S(=O)(=O)NCCN3CCCC3)cc2)nc1)c1c(Cl)cccc1Cl [III, 2,6-Dichloro-N-{2-[4-(2-pyrrolidin-1-yl-ethylsulfamoyl)-phenylamino]-pyrimidin-5-yl}-benzamide]",7.14
6,"CN(CCN1CCCC1)S(=O)(=O)c1ccc(Nc2ncc(NC(=O)c3c(Cl)cccc3Cl)cn2)cc1 [IV, 2,6-Dichloro-N-(2-[4-[methyl-(2-pyrrolidin-1-yl-ethyl)-sulfamoyl]-phenylamino]-pyrimidin-5-yl)-benzamide]",5.68
7,"Cc1cccc(C)c1C(=O)Nc1cnc(Nc2ccc(C(=O)N3CCNCC3)cc2)nc1 [L, 2,6-Dimethyl-N-{2-[4-(piperazine-1-carbonyl)-phenylamino]-pyrimidin-5-yl}-benzamide]",6.74
8,"Clc1cccc(Cl)c1CNc1cnc(Nc2cccc(OCCN3CCCC3)c2)nc1 [LII, N′-(2,6-Dichloro-benzyl)-N-[3-(2-pyrrolidin-1-yl-ethoxy)-phenyl]-pyrimidine-2,5-diamine]",7.22
9,"Cc1nc(Nc2ncc(NC(=O)c3c(Cl)cccc3Cl)cn2)cc(N2CCN(CCO)CC2)n1 [LIII, 2,6-Dichloro-N-(2-{6-[4-(2-hydroxy-ethyl)-piperazin-1-yl]-2-methyl-pyrimidin-4-ylamino}-pyrimidin-5-yl)-benzamide]",5.52
10,"CN1CCN(S(=O)(=O)c2ccc(Nc3ncc(NC(=O)c4c(Cl)cccc4Cl)cn3)cc2)CC1 [V, 2,6-Dichloro-N-{2-[4-(4-methyl-piperazine-1-sulfonyl)-phenylamino]-pyrimidin-5-yl}-benzamide]",6.18
11,"Cc1cccc(C)c1C(=O)Nc1cnc(Nc2ccc(S(=O)(=O)NCCN3CCCC3)cc2)nc1 [VI, 2,6-Dimethyl-N-{2-[4-(2-pyrrolidin-1-yl-ethylsulfamoyl)-phenylamino]-pyrimidin-5-yl}-benzamide]",7.05
12,"O=C(NCCN1CCCC1)c1ccc(Nc2ncc(NC(=O)c3c(Cl)cccc3Cl)cn2)cn1 [VIII, 5-[5-(2,6-Dichloro-benzoylamino)-pyrimidin-2-ylamino]-pyridine-2-carboxylic acid (2-pyrrolidin-1-yl-ethyl)-amide]",6.89
13,"O=C(Nc1cnc(Nc2cccnc2)nc1)c1c(Cl)cccc1Cl [X, 2,6-Dichloro-N-[2-(pyridin-3-ylamino)-pyrimidin-5-yl]-benzamide]",6.52
14,"CN1CCN(C(=O)c2ccc(Nc3ncc(NC(=O)c4c(Cl)cccc4Cl)cn3)cc2)CC1 [XIV, 2,6-Dichloro-N-{2-[4-(4-methyl-piperazine-1-carbonyl)-phenylamino]-pyrimidin-5-yl}-benzamide]",7.03
15,"Oc1ccc(Cl)c(CNc2cnc(Nc3ccc(OCCN4CCCC4)cc3)nc2)c1 [XLI, 3-((2-(4-(2-(Pyrrolidin-1-yl)ethoxy)phenylamino)pyrimidin-5-ylamino)methyl)-4-chlorophenol]",7.26
16,"Cc1cccc(C)c1C(=O)Nc1cnc(Nc2cccc(OCCN3CCCC3)c2)nc1 [XLIII, N-(2-(3-(2-(Pyrrolidin-1-yl)ethoxy)phenylamino)pyrimidin-5-yl)-2,6-dimethylbenzamide]",7.00
17,"O=C(Nc1cnc(Nc2ccc(N3CCN(CCO)CC3)nc2)nc1)c1c(Cl)cccc1Cl [XLIX, 2,6-Dichloro-N-(2-{6-[4-(2-hydroxy-ethyl)-piperazin-1-yl]-pyridin-3-ylamino}-pyrimidin-5-yl)-benzamide]",7.27
18,"Cc1cccc(C)c1C(=O)Nc1cnc(Nc2ccc(C(=O)N3CCN(C)CC3)cc2)nc1 [XV, 2,6-Dimethyl-N-{2-[4-(4-methyl-piperazine-1-carbonyl)-phenylamino]-pyrimidin-5-yl}-benzamide]",6.65
19,"Cc1c(O)cccc1C(=O)Nc1cnc(Nc2ccc(C(=O)N3CCN(C)CC3)cc2)nc1 [XVII, 2-Methyl-3-hydroxy-N-{2-[4-(4-methyl-piperazine-1-carbonyl)-phenylamino]-pyrimidin-5-yl}-benzamide]",6.26
20,"CC(C)N(CCO)C(=O)c1ccc(Nc2ncc(NC(=O)c3c(Cl)cccc3Cl)cn2)cc1 [XXI, 2,6-Dichloro-N-(2-{4-[(2-hydroxy-ethyl)-isopropyl-carbamoyl]-phenylamino}-pyrimidin-5-yl)-benzamide]",6.54
21,"Cc1cccc(C)c1C(=O)Nc1cnc(Nc2ccc(C(=O)NCCN3CCCC3)cc2)nc1 [XXIX, 2,6-Dimethyl-N-{2-[4-(2-pyrrolidin-1-yl-ethylcarbamoyl)-phenylamino]-pyrimidin-5-yl}-benzamide]",6.93

# Other lines, results leading:
row,pIC50,SMILES
1,7.89,"O=C(NCCN1CCCC1)c1ccc(Nc2ncc(NC(=O)c3cc(O)ccc3Cl)cn2)cn1 [IX, 5-[5-(2-Chloro-5-hydroxy-benzoylamino)-pyrimidin-2-ylamino]-Pyridine-2-carboxylic acid (2-pyrrolidin-1-yl-ethyl)-amide]"
2,7.92,"O=C(Nc1cnc(Nc2ccc(C(=O)N3CCNCC3)cc2)nc1)c1cc(O)ccc1Cl [LI, 2-Chloro-5-hydroxy-N-{2-[4-(piperazine-1-carbonyl)-phenylamino]-Pyrimidin-5-yl}-benzamide]"
3,7.89,"O=C(Nc1cnc(Nc2ccc(S(=O)(=O)NCCN3CCCC3)cc2)nc1)c1cc(O)ccc1Cl [VII, 2-Chloro-5-hydroxy-N-{2-[4-(2-pyrrolidin-1-yl-ethylsulfamoyl)-phenylamino]-pyrimidin-5-yl}-benzamide]"
4,7.37,"O=C(Nc1cnc(Nc2cccnc2)nc1)c1cc(O)ccc1Cl [XI, Chloro-5-hydroxy-N-[2-(pyridin-3-ylamino)-pyrimidin-5-yl]-benzamide]"
5,7.60,"CC(C)N(CCO)C(=O)c1cccc(Nc2ncc(NC(=O)c3c(Cl)cccc3Cl)cn2)c1 [XIX, 2,6-Dichloro-N-(2-{3-[(2-hydroxy-ethyl)-isopropyl-carbamoyl]-phenylamino}-pyrimidin-5-yl)-benzamide]"
6,7.68,"O=C(Nc1cnc(Nc2cccc(OCCN3CCCC3)c2)nc1)c1cc(O)ccc1Cl [XLII, N-(2-(3-(2-(Pyrrolidin-1-yl)ethoxy)phenylamino)pyrimidin-5-yl)-2-chloro-5-hydroxybenzamide]"
7,7.60,"O=C(Nc1cnc(Nc2cccc(OCCN3CCCC3)c2)nc1)c1c(Cl)cccc1Cl [XLIV, N-(2-(3-(2-(Pyrrolidin-1-yl)ethoxy)phenylamino)pyrimidin-5-yl)-2,6-dichlorobenzamide]"
8,7.42,"O=C(Nc1cnc(Nc2ccc(S(=O)(=O)N3CCNCC3)cc2)nc1)c1cc(O)ccc1Cl [XLVII, 2-Chloro-5-hydroxy-N-{2-[4-(piperazine-1-sulfonyl)-phenylamino]-Pyrimidin-5-yl}-benzamide]"
9,7.28,"O=C(Nc1cnc(Nc2ccc(C(=O)N3CCN(CCO)CC3)nc2)nc1)c1cc(O)ccc1Cl [XLVIII, 2-Chloro-5-hydroxy-N-(2-{6-[4-(2-hydroxy-ethyl)-piperazine-1-carbonyl]-pyridin-3-ylamino}-pyrimidin-5-yl)-benzamide]"
10,7.68,"CN1CCN(C(=O)c2ccc(Nc3ncc(NC(=O)c4cc(O)ccc4Cl)cn3)cc2)CC1 [XVI, 2-Chloro-5-hydroxy-N-{2-[4-(4-methyl-piperazine-1-carbonyl)-phenylamino]-pyrimidin-5-yl}-benzamide]"
11,7.70,"O=C(NCCN1CCCC1)c1csc(Nc2ncc(NC(=O)c3cc(O)ccc3Cl)cn2)n1 [XVIII, 2-[5-(2-Chloro-5-hydroxy-benzoylamino)-pyrimidin-2-ylamino]-thiazole-4-carboxylic acid (2-pyrrolidin-1-yl-ethyl)-amide]"
12,7.72,"CC(C)N(CCO)C(=O)c1cccc(Nc2ncc(NC(=O)c3cc(O)ccc3Cl)cn2)c1 [XX, 2-Chloro-5-hydroxy-N-(2-{3-[(2-hydroxy-ethyl)-isopropyl-carbamoyl]-phenylamino}-pyrimidin-5-yl)-benzamide]"
13,7.37,"CC(C)N(CCO)C(=O)c1ccc(Nc2ncc(NC(=O)c3cc(O)ccc3Cl)cn2)cc1 [XXII, 2-Chloro-5-hydroxy-N-(2-{4-[(2-hydroxy-ethyl)-isopropyl-carbamoyl]-phenylamino}-pyrimidin-5-yl)-benzamide]"
14,7.89,"O=C(NCCN1CCCC1)c1ccc(Nc2ncc(NC(=O)c3cc(O)ccc3Br)cn2)cc1 [XXIII, 2-Bromo-5-hydroxy-N-{2-[4-(2-pyrrolidin-1-yl-ethylcarbamoyl)-phenylamino]-pyrimidin-5-yl}-benzamide]"
15,8.07,"O=C(NCCN1CCCC1)c1ccc(Nc2ncc(NC(=O)c3cc(O)ccc3Cl)cn2)cc1 [XXV, 2-Chloro-5-hydroxy-N-{2-[4-(2-pyrrolidin-1-yl-ethylcarbamoyl)-phenylamino]-pyrimidin-5-yl}-benzamide]"
